{
  "source": "ChEMBL document CHEMBL4673259",
  "about": "“Discovery of isoquinolinone and naphthyridinone-based inhibitors of poly(ADP-ribose) polymerase-1 (PARP1) as anticancer agents: Structure activity relationship and preclinical characterization” (Bioorg Med Chem, 2020)",
  "key": {"[1]": {"target": "5-hydroxytryptamine receptor 2B (Homo sapiens) (UniProt P41595)", "sequence (P41595 whole entry)": "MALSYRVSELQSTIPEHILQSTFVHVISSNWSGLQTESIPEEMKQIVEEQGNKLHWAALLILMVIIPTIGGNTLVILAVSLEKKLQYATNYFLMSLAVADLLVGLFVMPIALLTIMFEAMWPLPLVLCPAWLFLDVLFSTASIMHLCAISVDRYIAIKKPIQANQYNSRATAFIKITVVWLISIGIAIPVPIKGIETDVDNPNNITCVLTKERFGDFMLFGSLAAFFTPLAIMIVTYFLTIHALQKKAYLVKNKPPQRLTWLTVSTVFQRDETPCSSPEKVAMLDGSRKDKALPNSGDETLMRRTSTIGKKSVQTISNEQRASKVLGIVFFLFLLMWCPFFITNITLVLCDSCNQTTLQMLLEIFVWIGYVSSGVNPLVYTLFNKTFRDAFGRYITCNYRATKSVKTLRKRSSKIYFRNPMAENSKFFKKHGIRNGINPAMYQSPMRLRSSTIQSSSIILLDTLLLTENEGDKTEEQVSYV", "assay": "Displacement of [3H]mesulergine from human recombinant 5-HT2B receptor at 10 uM incubated for 60 mins by radiometric scintillation analysis"}, "MDA-MB-436 [2]": {"tested_on": "MDA-MB-436", "assay": "Cytotoxicity against human MDA-MB-436 cells assessed as inhibition of cell viability incubated for 14 days with three intermittent intervals by CellTiterGlo luminescence assay", "details": "MDA-MB-436, 336 h"}, "CAPAN-1 [3]": {"tested_on": "CAPAN-1", "assay": "Potentiation of anticancer activity against human CAPAN-1 cells harboring BRCA mutant xenografted in SCID/nude mouse assessed as tumor growth inhibition at 0.15 mg/kg, po bid for 12 days co-administered with TMZ measured up to 9 weeks post-drug administration", "assay_type": "functional", "details": "CAPAN-1, po, 288 h, time 12 day"}, "SK-ES1 [4]": {"tested_on": "SK-ES1", "assay": "Potentiation of anticancer activity against human SK-ES-1 cells harboring EWSF1 translocation xenografted in SCID/nude mouse assessed as tumor growth inhibition at 0.15 mg/kg, po bid for 12 days co-administered with TMZ measured up to 9 weeks post drug administration", "assay_type": "functional", "details": "288 h, time 12 day"}, "[5]": {"target": "Poly [ADP-ribose] polymerase tankyrase-1 (Homo sapiens, UniProt O95271)", "sequence (O95271 whole entry)": "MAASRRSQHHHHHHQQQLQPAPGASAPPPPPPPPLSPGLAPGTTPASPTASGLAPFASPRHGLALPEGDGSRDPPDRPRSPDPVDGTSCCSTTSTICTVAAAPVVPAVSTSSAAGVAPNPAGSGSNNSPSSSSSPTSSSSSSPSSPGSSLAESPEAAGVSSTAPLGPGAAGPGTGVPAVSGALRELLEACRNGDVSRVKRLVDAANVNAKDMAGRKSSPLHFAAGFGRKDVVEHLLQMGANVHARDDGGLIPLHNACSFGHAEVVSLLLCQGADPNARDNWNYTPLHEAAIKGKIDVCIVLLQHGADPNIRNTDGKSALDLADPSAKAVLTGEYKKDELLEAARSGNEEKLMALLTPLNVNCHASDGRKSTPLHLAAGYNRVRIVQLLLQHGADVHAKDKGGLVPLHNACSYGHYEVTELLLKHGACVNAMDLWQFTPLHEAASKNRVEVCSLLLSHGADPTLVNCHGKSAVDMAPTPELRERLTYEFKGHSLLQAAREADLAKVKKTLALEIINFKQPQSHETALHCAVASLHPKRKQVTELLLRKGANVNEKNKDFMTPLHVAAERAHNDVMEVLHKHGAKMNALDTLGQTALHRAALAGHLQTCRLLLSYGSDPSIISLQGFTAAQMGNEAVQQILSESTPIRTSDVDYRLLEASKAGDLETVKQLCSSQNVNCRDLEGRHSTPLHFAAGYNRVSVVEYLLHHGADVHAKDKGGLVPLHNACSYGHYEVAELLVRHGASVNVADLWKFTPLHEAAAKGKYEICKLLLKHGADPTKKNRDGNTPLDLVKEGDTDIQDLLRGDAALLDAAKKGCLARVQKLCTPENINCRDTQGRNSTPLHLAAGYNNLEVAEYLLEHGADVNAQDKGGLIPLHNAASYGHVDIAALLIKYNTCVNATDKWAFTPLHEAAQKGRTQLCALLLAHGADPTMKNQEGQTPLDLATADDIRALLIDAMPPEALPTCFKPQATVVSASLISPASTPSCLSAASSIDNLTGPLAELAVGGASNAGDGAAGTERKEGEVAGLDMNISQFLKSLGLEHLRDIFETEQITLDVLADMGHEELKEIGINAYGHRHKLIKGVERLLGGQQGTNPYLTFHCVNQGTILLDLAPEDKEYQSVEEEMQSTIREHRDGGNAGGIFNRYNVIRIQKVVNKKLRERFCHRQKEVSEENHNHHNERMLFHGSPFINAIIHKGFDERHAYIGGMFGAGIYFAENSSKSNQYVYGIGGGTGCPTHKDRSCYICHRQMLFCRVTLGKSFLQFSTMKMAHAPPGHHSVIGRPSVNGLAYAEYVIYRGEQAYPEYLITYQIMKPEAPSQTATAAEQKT", "assay": "Inhibition of TNKS1 (unknown origin)"}, "CYP2C19": {"target": "CYP2C19 (Homo sapiens, UniProt P33261)", "assay": "Inhibition of CYP2C19 (unknown origin) at 10 uM relative to control", "assay_type": "ADME"}, "[6]": {"assay": "Tmax in BALB/c mouse at 10 mg/kg, po measured up to 24 hrs by LC-MS/MS analysis", "assay_type": "ADME, organism-based", "details": "in vivo"}, "[7]": {"target": "Mitogen-activated protein kinase kinase kinase 14 (Homo sapiens) (UniProt Q99558)", "assay": "Inhibition of NIK (unknown origin) at 10 uM"}, "[8]": {"assay": "Toxicity in rat assessed as NOAEL for CNS effect", "details": "in vivo"}, "[9]": {"assay": "Protein binding in dog plasma", "assay_type": "ADME, cell-free, Canis lupus familiaris", "details": "read-out: PPB (converted)"}, "MCF7": {"tested_on": "MCF7", "assay": "Cytotoxicity against human MCF7 cells harboring wild type BRCA at 1000 nM relative to control", "assay_type": "cell-based", "details": "mcf7, 1 µM"}, "[10]": {"assay": "Metabolic stability of the compound in mouse plasma measured up to 4 hrs", "assay_type": "ADME, cell-free", "details": "read-out: Stabilty"}, "SK-ES1 [11]": {"tested_on": "SK-ES1", "assay": "Antitumor activity against human SK-ES-1 cells xenografted in SCID/nude mouse assessed as tumor growth inhibition at 0.45 mg/kg, po bid measured up to 5 weeks post drug administration", "assay_type": "functional", "details": "840 h, time weeks <=5"}, "CYP1A2": {"target": "CYP1A2 (Homo sapiens, UniProt P05177)", "sequence (P05177 whole entry)": "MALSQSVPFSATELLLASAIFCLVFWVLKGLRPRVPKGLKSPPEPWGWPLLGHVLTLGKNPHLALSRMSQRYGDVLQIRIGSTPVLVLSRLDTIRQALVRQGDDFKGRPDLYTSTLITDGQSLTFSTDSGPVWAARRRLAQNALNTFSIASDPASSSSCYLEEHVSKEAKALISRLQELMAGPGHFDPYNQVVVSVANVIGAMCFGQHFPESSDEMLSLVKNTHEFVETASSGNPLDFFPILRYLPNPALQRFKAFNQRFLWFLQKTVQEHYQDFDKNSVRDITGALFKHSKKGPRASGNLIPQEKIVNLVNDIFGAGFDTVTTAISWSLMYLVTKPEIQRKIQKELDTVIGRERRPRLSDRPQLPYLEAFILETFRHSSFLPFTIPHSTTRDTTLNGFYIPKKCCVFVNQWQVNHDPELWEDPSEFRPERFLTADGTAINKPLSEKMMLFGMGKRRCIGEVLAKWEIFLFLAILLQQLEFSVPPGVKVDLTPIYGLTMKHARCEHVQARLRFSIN", "assay": "Inhibition of CYP1A2 (unknown origin) at 10 uM relative to control", "assay_type": "ADME"}, "[12]": {"assay": "Toxicity in rat assessed as NOAEL for respiratory effect", "details": "in vivo"}, "CAPAN-1 [13]": {"tested_on": "CAPAN-1", "assay": "Antitumor activity against human CAPAN1 cells xenografted in SCID/nude mouse assessed as tumor growth inhibition at 0.3 mg/kg, po bid measured up to 5 weeks post drug administration", "assay_type": "functional", "details": "CAPAN-1, po, 840 h, time weeks <=5"}, "[14]": {"assay": "Tmax in BALB/c mouse at 1 mg/kg, iv measured up to 24 hrs by LC-MS/MS analysis", "assay_type": "ADME, organism-based", "details": "in vivo"}, "MDA-MB-436 [15]": {"tested_on": "MDA-MB-436", "assay": "Anticancer activity against human MDA-MB-436 cells harboring BRCA mutant xenografted in SCID/nude mouse assessed as tumor growth regression at 0.15 mg/kg, po bid and measured up to 5 weeks post-drug administration", "assay_type": "functional", "details": "MDA-MB-436, po, 840 h, time weeks <=5"}, "[16]": {"assay": "Toxicity against SCID/nude mouse xenografted with human SK-ES-1 cells harboring EWSF1 translocation assessed as body weight loss at 0.15 mg/kg, po bid for 12 days co-administered with 35 mg/kg, po TMZ", "assay_type": "organism-based", "details": "in vivo, 288 h, time 12 day"}, "HEK293": {"tested_on": "HEK293", "assay": "Cytotoxicity against HEK293 cells at 1000 nM relative to control", "assay_type": "cell-based", "details": "human, hek293, 1 µM"}, "[17]": {"assay": "AUClast in BALB/c mouse at 1 mg/kg, iv measured up to 24 hrs by LC-MS/MS analysis", "assay_type": "ADME, organism-based", "parameters": "route intravenous, dose 1 mg/kg, time <=24", "details": "in vivo"}, "[18]": {"target": "Protein mono-ADP-ribosyltransferase PARP3 (Homo sapiens, UniProt Q9Y6F1)", "sequence (Q9Y6F1 whole entry)": "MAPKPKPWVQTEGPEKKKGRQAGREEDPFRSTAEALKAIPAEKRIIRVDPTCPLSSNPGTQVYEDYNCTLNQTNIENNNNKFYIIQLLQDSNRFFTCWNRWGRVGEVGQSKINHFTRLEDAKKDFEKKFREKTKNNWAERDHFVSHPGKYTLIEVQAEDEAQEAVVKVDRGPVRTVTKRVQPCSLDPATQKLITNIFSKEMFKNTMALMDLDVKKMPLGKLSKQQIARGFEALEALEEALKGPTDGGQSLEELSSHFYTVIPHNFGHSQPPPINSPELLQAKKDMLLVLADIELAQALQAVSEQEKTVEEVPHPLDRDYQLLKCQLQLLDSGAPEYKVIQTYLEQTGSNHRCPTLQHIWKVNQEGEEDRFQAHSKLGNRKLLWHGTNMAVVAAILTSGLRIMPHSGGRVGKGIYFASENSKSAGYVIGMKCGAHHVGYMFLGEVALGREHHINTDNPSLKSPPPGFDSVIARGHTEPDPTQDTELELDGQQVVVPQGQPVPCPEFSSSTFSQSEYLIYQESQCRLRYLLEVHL", "assay": "Inhibition of PARP3 (unknown origin)"}, "MDA-MB-436 [19]": {"tested_on": "MDA-MB-436", "assay": "Potentiation of anticancer activity against human MDA-MB-436 cells harboring BRCA mutant xenografted in SCID/nude mouse assessed as tumor growth inhibition at 0.15 mg/kg, po bid for 12 days co-administered with TMZ measured after drug administration cessation", "assay_type": "functional, organism-based", "details": "time 12.0 day"}, "[20]": {"assay": "Half life in BALB/c mouse at 1 mg/kg, iv measured up to 24 hrs by LC-MS/MS analysis", "assay_type": "ADME, organism-based", "details": "in vivo"}, "[21]": {"assay": "Oral bioavailability in BALB/c mouse at 10 mg/kg measured up to 24 hrs by LC-MS/MS analysis", "assay_type": "ADME, organism-based", "details": "in vivo"}, "[22]": {"assay": "Toxicity in rat assessed as NOAEL", "details": "in vivo"}, "MDA-MB-436 [23]": {"tested_on": "MDA-MB-436", "assay": "Anticancer activity against human MDA-MB-436 cells harboring BRCA mutant xenografted in po dosed SCID/nude mouse assessed as tumor growth regression administered bid and measured up to 5 weeks post-drug administration", "assay_type": "functional, organism-based", "details": "dose 0.015-0.15 mg/kg, time weeks <=5"}, "[24]": {"assay": "Cmax in BALB/c mouse at 1 mg/kg, iv measured up to 24 hrs by LC-MS/MS analysis", "assay_type": "ADME, organism-based", "parameters": "route intravenous, dose 1 mg/kg, time <=24", "details": "in vivo"}, "[25]": {"assay": "AUClast in BALB/c mouse at 10 mg/kg, po measured up to 24 hrs by LC-MS/MS analysis", "assay_type": "ADME, organism-based", "parameters": "route oral, dose 10 mg/kg, time <=24", "details": "in vivo"}, "CAPAN-1 [26]": {"tested_on": "CAPAN-1", "assay": "Antitumor activity against human CAPAN1 cells xenografted in SCID/nude mouse assessed as tumor growth inhibition at 0.1 mg/kg, po bid measured up to 5 weeks post drug administration", "assay_type": "functional", "details": "CAPAN-1, po, 840 h, time weeks <=5"}, "[27]": {"target": "Poly [ADP-ribose] polymerase 2 (Homo sapiens, UniProt Q9UGN5)", "assay": "Inhibition of N-terminal GST-tagged human PARP2 (2 to 583 residues) expressed in baculovirus infected Sf9 cells using histone mixture (H2A and H2B) and biotinylated NAD+ as substrate in presence of activated DNA incubated for 60 mins by chemiluminescence assay"}, "CYP2E1": {"target": "CYP2E1 (Homo sapiens, UniProt P05181)", "sequence (P05181 whole entry)": "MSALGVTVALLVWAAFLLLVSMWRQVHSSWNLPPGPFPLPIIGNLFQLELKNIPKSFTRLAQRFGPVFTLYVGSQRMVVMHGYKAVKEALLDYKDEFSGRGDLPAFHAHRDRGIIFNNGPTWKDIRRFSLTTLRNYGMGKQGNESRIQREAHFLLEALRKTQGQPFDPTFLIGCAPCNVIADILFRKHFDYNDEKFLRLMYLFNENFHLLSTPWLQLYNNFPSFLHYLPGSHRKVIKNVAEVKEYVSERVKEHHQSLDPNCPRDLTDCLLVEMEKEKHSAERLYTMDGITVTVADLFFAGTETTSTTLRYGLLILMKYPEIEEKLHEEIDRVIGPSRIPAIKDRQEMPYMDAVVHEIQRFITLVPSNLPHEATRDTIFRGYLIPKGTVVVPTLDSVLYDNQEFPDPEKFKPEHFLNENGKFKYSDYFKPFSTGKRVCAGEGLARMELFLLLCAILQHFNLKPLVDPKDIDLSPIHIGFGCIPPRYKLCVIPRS", "assay": "Inhibition of CYP2E1 (unknown origin) at 10 uM relative to control", "assay_type": "ADME"}, "[28]": {"target": "Adrenergic receptor alpha-1 (Homo sapiens) (UniProt P35348+P25100+P35368)", "assay": "Binding affinity to alpha1 adrenoceptor (unknown origin) at 10 uM", "assay_type": "protein assay"}, "[29]": {"target": "Poly [ADP-ribose] polymerase tankyrase-2 (Homo sapiens, UniProt Q9H2K2)", "sequence (Q9H2K2 whole entry)": "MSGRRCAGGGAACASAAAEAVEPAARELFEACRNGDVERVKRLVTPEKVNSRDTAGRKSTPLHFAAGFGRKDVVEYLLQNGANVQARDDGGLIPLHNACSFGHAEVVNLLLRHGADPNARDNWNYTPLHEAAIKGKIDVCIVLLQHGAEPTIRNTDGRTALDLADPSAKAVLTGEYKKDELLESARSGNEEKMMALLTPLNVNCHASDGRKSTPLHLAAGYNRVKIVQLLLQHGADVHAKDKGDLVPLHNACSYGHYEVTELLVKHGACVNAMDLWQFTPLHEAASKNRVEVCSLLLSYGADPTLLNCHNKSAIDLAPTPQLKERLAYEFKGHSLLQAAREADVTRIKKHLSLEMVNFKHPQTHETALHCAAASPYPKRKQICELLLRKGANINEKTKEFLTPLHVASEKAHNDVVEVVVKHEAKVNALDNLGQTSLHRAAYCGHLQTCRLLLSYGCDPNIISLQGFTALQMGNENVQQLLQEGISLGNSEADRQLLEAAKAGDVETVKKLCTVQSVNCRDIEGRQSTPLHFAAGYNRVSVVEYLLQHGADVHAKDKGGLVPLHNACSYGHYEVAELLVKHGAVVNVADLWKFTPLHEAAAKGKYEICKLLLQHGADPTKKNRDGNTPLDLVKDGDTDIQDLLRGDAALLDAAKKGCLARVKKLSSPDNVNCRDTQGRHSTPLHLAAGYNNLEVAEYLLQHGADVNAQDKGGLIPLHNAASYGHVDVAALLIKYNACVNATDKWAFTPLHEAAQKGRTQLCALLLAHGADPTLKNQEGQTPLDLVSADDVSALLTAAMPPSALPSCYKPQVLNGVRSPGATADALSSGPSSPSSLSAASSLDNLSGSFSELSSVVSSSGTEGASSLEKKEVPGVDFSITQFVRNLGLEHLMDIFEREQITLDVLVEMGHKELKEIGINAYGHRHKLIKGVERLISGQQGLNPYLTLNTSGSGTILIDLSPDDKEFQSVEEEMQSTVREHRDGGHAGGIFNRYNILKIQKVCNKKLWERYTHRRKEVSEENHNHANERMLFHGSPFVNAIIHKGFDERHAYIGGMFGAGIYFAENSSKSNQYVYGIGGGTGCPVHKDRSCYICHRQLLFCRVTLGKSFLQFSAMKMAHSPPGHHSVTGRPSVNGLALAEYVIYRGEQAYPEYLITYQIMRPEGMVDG", "assay": "Inhibition of TNKS2 (unknown origin)"}, "[30]": {"assay": "Protein binding in human plasma", "assay_type": "ADME, cell-free", "details": "read-out: PPB (converted)"}, "CYP2B6": {"target": "CYP2B6 (Homo sapiens, UniProt P20813)", "sequence (P20813 whole entry)": "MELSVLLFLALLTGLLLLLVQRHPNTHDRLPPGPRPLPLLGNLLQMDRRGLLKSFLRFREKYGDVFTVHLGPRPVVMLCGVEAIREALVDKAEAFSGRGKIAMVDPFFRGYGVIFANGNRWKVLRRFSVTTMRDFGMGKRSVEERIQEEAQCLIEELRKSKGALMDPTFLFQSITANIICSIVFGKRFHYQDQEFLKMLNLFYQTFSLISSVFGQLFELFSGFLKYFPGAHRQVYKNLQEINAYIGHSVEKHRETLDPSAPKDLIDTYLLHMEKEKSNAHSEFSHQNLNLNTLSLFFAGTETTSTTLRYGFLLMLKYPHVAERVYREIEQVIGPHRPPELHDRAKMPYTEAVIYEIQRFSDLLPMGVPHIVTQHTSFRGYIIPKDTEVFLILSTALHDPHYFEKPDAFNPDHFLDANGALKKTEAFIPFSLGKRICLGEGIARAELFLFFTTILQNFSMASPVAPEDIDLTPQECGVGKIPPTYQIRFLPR", "assay": "Inhibition of CYP2B6 (unknown origin) at 10 uM relative to control", "assay_type": "ADME"}, "[31]": {"assay": "Toxicity against SCID/nude mouse xenografted with human MDA-MB-436 cells harboring BRCA mutant assessed as body weight loss at 0.15 mg/kg, po bid for 12 days co-administered with 35 mg/kg, po TMZ", "assay_type": "organism-based", "details": "in vivo, 288 h, time 12 day"}, "[32]": {"assay": "Toxicity against SCID/nude mouse xenografted with human CAPAN-1 cells harboring BRCA mutant assessed as body weight loss at 0.15 mg/kg, po bid for 12 days co-administered with 35 mg/kg, po TMZ", "assay_type": "organism-based", "details": "in vivo, 288 h, time 12 day"}},
  "note": "Calls of active or inactive are those of the source. The calls are words filed in the database; no cut-off is given here.",
  "data": [
    {"smiles": "N#Cc1ccc(N2CCN([C@H]3C=C(c4cc5ncccc5c(=O)[nH]4)CC3)CC2)cc1", "values": [
      {"measurement": "Activity", "setting": "[1]", "value": 70, "unit": "%"},
      {"measurement": "IC50", "setting": "MDA-MB-436 [2]", "value": 0.0008, "unit": "nM"},
      {"measurement": "inhibition in vivo at 0.15 mg/kg", "setting": "CAPAN-1 [3]", "value": 88, "unit": "%"},
      {"measurement": "inhibition in vivo at 0.15 mg/kg", "setting": "SK-ES1 [4]", "value": 89, "unit": "%"},
      {"measurement": "IC50", "setting": "[5]", "value": 769, "unit": "nM"},
      {"measurement": "inhibition at 10 µM", "setting": "CYP2C19", "value": "≤ 23", "unit": "%"},
      {"measurement": "Tmax", "setting": "[6]", "value": 1, "unit": "h"},
      {"measurement": "inhibition", "setting": "[7]", "value": 65, "unit": "%"},
      {"measurement": "NOAEL", "setting": "[8]", "value": 30, "unit": "mg/kg/day"},
      {"measurement": "fraction unbound", "setting": "[9]", "value": 0.125},
      {"measurement": "Activity", "setting": "MCF7", "value": 36, "unit": "%"},
      {"measurement": "remaining at 4 h", "setting": "[10]", "value": 80, "unit": "%"},
      {"measurement": "inhibition in vivo at 0.45 mg/kg", "setting": "SK-ES1 [11]", "value": 20, "unit": "%"},
      {"measurement": "inhibition at 10 µM", "setting": "CYP1A2", "value": "≤ 23", "unit": "%"},
      {"measurement": "NOAEL", "setting": "[12]", "value": 30, "unit": "mg/kg/day"},
      {"measurement": "inhibition in vivo at 0.3 mg/kg", "setting": "CAPAN-1 [13]", "value": 49.6, "unit": "%"},
      {"measurement": "Tmax", "setting": "[14]", "value": 4.8, "unit": "min"},
      {"measurement": "inhibition in vivo at 0.15 mg/kg", "setting": "MDA-MB-436 [15]", "value": 79, "unit": "%"},
      {"measurement": "Activity", "setting": "[16]", "value": "Non-Toxic"},
      {"measurement": "Activity", "setting": "HEK293", "value": 72, "unit": "%"},
      {"measurement": "AUC(0-t) at 24 h", "setting": "[17]", "value": 94, "unit": "µM·h"},
      {"measurement": "IC50", "setting": "[18]", "value": 8000, "unit": "nM"},
      {"measurement": "Activity", "setting": "MDA-MB-436 [19]", "value": "Active"},
      {"measurement": "half-life", "setting": "[20]", "value": 5.1, "unit": "h"},
      {"measurement": "bioavailability", "setting": "[21]", "value": 43, "unit": "%"},
      {"measurement": "NOAEL", "setting": "[22]", "value": 15, "unit": "mg/kg/day"},
      {"measurement": "Activity", "setting": "MDA-MB-436 [23]", "value": "Dose-dependent effect"},
      {"measurement": "Cmax", "setting": "[24]", "value": 11, "unit": "µM"},
      {"measurement": "AUC(0-t) at 24 h", "setting": "[25]", "value": 403, "unit": "µM·h"},
      {"measurement": "inhibition in vivo at 0.1 mg/kg", "setting": "CAPAN-1 [26]", "value": 46.1, "unit": "%"},
      {"measurement": "IC50", "setting": "[27]", "value": 8.1, "unit": "nM"},
      {"measurement": "inhibition at 10 µM", "setting": "CYP2E1", "value": "≤ 23", "unit": "%"},
      {"measurement": "Activity", "setting": "[28]", "value": 70, "unit": "%"},
      {"measurement": "IC50", "setting": "[29]", "value": 74, "unit": "nM"},
      {"measurement": "fraction unbound", "setting": "[30]", "value": 0.017},
      {"measurement": "inhibition at 10 µM", "setting": "CYP2B6", "value": "≤ 23", "unit": "%"},
      {"measurement": "Activity", "setting": "[31]", "value": "Non-Toxic"},
      {"measurement": "Activity", "setting": "[32]", "value": "Non-Toxic"}
    ]}
  ]
}
